Among the data in patent US7022694B2, “Indoles and indolines having 5-HT activity” (Pharmacia & UpJohn Company, priority 2001, dated 2006) are melting point values, retold here.

On to `CN1CCc2ccc3cc[nH]c3c2CC1`, for which the melting point fell in the range of 150 to 153 °C.
For `c1cnc2c(OCCn3ccc4ccc5c(c43)CCNCC5)cccc2c1` [Example 6, 1-[2-(8-Quinolinyloxy)ethyl]-1,6,7,8,9,10-hexahydroazepino[4,5-g]indole] the value was 129 to 132 °C.
